Where two headings read alike, the source gives them in different places.
Legend:
[1] = system: Androgen Receptor in human prostate cancer cell lines; experiment: Androgen Receptor Degradation-Imaging Assay, all prostate cancer cell lines (FIG. 2); assay type: cell-based; settings: 16 hours treatment
Method: Degradation of Androgen Receptor (AR) protein in human prostate cancer cell lines (MDA-PCa-2b (AR T878A/L702H), LNCaP (AR T878A), VCaP (AR wild type and amplified) 22RV1 (AR H875Y) and PC3 (AR negative control)) treated with AR PROTACs was quantified using immunofluorescence. Prostate cancer cells were plated (MDA-PCa-2b, and VCaP 16,000 cells/well; LNCaP and 22RV1 32,000 cells/well, and PC3 8,000 cells/well) in an optical bottom 96-well cell culture plate and allowed to attach overnight. The prostate cancer cell lines were treated for 16 hours with a 10-point 3-fold dilution series (dose range=0.02 nM to 333 nM). PC3 is included as an AR negative control and not treated with compound. […] Following washes with IF buffer, cells were incubated with fluorescent secondary antibody (Goat anti-rabbit Alexa 647; commercially available from Invitrogen) and Hoechst nuclear stain (commercially available from Themo Scientific) prior to quantification of nuclear AR levels via Opera Phenix high-content fluorescent imager using a 40× water objective. […]
The averaged nuclear Alexa 647 median fluorescence intensity (MFI) of PC3 cells is subtracted from the nuclear Alexa 647 MFI of PROTAC treated and DMSO control treated cells. % AR remaining is calculated for PROTAC treatments as a percent of the DMSO control (MFI PROTAC treated/MFI DMSO control treated)*100). […]

Androgen receptor F877L = target: T1, Androgen receptor F877L (Homo sapiens, UniProt P10275, F877L); experiment: Degradation of overexpressed Androgen Receptor in A549 cells (HiBiT), F877L; assay type: cell-based; settings: A549 cells overexpressing AR F877L, cycloheximide, 24 hours
T1 construct: expressed in transfected cells; host or cells: A549, transduced, puromycin selected
T1 sequence (P10275 1-920 F877L): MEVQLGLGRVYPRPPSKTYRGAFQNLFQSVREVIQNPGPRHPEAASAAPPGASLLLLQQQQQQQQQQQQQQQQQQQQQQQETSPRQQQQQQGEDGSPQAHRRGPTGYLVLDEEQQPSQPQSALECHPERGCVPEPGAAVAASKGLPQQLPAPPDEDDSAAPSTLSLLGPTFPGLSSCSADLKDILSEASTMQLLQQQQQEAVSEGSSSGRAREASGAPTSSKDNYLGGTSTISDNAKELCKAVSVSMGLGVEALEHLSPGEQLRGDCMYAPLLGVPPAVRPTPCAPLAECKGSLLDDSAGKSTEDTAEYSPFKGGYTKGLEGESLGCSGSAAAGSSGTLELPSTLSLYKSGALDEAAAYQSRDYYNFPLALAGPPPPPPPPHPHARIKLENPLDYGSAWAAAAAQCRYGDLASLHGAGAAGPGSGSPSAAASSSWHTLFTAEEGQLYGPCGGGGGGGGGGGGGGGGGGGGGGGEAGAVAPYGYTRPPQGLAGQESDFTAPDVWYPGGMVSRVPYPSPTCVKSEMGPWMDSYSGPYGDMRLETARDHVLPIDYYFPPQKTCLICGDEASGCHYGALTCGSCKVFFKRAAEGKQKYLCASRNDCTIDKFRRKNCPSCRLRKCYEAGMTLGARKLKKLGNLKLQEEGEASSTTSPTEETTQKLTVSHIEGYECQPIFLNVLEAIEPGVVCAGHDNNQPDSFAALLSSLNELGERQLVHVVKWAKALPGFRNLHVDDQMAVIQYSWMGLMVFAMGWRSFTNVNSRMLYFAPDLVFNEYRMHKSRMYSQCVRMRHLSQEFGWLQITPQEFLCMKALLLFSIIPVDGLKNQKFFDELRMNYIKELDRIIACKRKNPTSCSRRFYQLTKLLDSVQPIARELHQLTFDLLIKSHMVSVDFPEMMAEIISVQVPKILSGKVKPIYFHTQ
Method: A549 cells were transduced to express wild type androgen receptor and Androgen receptor containing the following mutations (L702H, H875Y W742C W742L F877L, T878A and T878A/H875Y) with HiBiT tags. Transduced cells following puromycin selection were maintained in a humidified incubator (at 37° C. and 5% CO2 in the DMEM medium supplemented with 1% (v/v) Pen/Strep, 1% (v/v) Glutamax and 10% (v/v) FBS. A549 cells expressing each AR construct were detached from plate and counted. Cell suspensions at density 0.2 million per mL were prepared. Cell suspension was supplemented with 100 μg/mL of cycloheximide to block protein synthesis. Cells were preincubated with cycloheximide for 1 hr before seeding. Cells were seeded onto 384-well plate at density of 5,000 in 25 μL per well. A two fold serial dilution of test compounds, starting from 1 μM (row A) in 2-fold serial dilution series across the column using Tecan D300e dispenser. […]
Nano-Glo HiBiT Lytic reagent was prepared by adding LgBiT protein and Nano-Glo® substrate to lytic buffer pre-equilibrated at room temperature following manufacturer protocol (https://www.promega.co.uk/resources/protocols/technical-manuals/101/nanoglo-luciferase-assay-system-protocol). […] The plates were then centrifuged (100×G, 1 min) and incubated on shaker for 10 mins before taking readings on Pherastar Luminescence microplate reader. […]

[2] = male, Wistar Han, rat, in vivo, po
Method: Systemic exposure of various forms of N-((1r,3r)-3-(4-cyano-3-methoxyphenoxy)-2,2,4,4-tetramethylcyclobutyl)-4-(4-((4-(4-(2,4-dioxotetrahydropyrimidin-1(2H)-yl)-1H-pyrazolo[4,3-c]pyridin-1-yl)piperidin-1-yl)methyl)piperidin-1-yl)-3-fluorobenzamide were assessed following oral administration of 30 mg/kg of a suspension formulation (1% methylcellulose (aq)) or following oral administration of 35 mg/kg of a suspension formulation (100% PEG400) in the male Wistar Han rat. […] The sampling period was 72 hours, and the data is reported in the attached table as mean±SD (n=3).

COc1cc(O[C@H]2C(C)(C)[C@H](NC(=O)c3ccc(N4CCC(CN5CCC(n6ncc7c(N8CCC(=O)NC8=O)nccc76)CC5)CC4)c(F)c3)C2(C)C)ccc1C#N [Example 20, N-((1r,3r)-3-(4-Cyano-3-methoxyphenoxy)-2,2,4,4-tetramethylcyclobutyl)-4-(4-((4-(4-(2,4-dioxotetrahydropyrimidin-1(2H)-yl)-1H-pyrazolo[4,3-c]pyridin-1-yl)piperidin-1-yl)methyl)piperidin-1-yl)-3-fluorobenzamide]
percentage of Androgen Receptor remaining versus concentration (FIG. 2) [1]: Good reductions
Summary pXC50 (Androgen receptor F877L): 8.84
Dose Normalised AUC0-t ([2]; 30 mg/kg): 240 ± 38 (ng · h/mL)/(mg/kg
Dose Normalised AUC0-t ([2]; 35 mg/kg): 744 ± 66 (ng · h/mL)/(mg/kg
